The results in this text go back to US11077090B2, “Compounds and compositions and uses thereof” (Sunovion Pharmaceuticals Inc., priority 2016, dated 2021).

The structures appear in SMILES notation.

One assay relates to compound-treated mice. Kind of assay: Neuropharmacological assay (SmartCube): behavioral activity signature and minimal effective dose. The class given is in vivo. The conditions noted are these: Mus musculus, ip, MED = dose having 50% or more total activity, read-out: Potency: minimal effective dose (MED), binned. An outline of the steps:
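Mice dosed i.p. 15 min before test, compound in N-methyl-2-pyrrolidone/PEG/propylene glycol, 3 doses; video-captured behavior matched to reference-drug signatures, giving per-class probabilities at most efficacious dose. MED from doses typically 0.3–30 mpk, defined as lowest dose with ≥50% total activity.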
As a reminder, the minimal effective dose is the lowest level tested that produced the effect sought. Consider `CCCN[C@H]1COCc2ccccc21.Cl` [Example 265], for which the minimal effective dose lay in the range of 3 to 10 mg/kg.

Consider `C#CCN[C@H]1COCc2ccccc21.Cl` [Example 266], for which the minimal effective dose lay in the range of 3 to 10 mg/kg.

In the case of `C#CCN[C@@H]1c2ccccc2CO[C@H]1C.Cl` [Example 267], the minimal effective dose was below 3 mg/kg.

With `CCCN[C@H]1c2ccccc2CO[C@@H]1C.Cl` [Example 268], the minimal effective dose was 3 to 10 mg/kg.

For `CCCN[C@@H]1c2ccccc2CO[C@@H]1C.Cl` [Example 269], the minimal effective dose lay in the range of 3 to 10 mg/kg.

With `C#CCN[C@H]1c2ccccc2CO[C@@H]1C.Cl` [Example 270], the minimal effective dose was below 3 mg/kg.

On to `C#CCN[C@H]1c2ccccc2CO[C@H]1C.Cl` [Example 271], for which the minimal effective dose lay within 3 to 10 mg/kg.

Take `CCCN[C@H]1c2ccccc2CO[C@H]1C.Cl` [Example 272]: the minimal effective dose lay in the range of 3 to 10 mg/kg.

In the case of `CCN(C)C(=O)Oc1ccc2c(c1)C(N)COC2.Cl` (stereo not drawn) [Example 277, 4-Aminoisochroman-6-yl ethyl(methyl)carbamate hydrochloride], the minimal effective dose is above 30 mg/kg.

As for `CCN(C)C(=O)Oc1ccc2c(c1)CO[C@@H](C)[C@H]2N.Cl` [Example 279], the minimal effective dose lay in the range of 3 to 10 mg/kg.

As for `CCN(C)C(=O)Oc1ccc2c(c1)CO[C@H](C)[C@H]2N.Cl` [Example 280], the minimal effective dose lay within 3 to 10 mg/kg.

As to `CCN(C)C(=O)Oc1ccc2c(c1)[C@H](N)[C@H](C)OC2.Cl` [Example 281], the minimal effective dose was above 30 mg/kg.

The same assay, now with this note: i.p. 15 min before test, most efficacious dose(s).
As for `CCCN[C@H]1COCc2ccccc21.Cl` [Example 265], the “AD: ADHD (probability of activity signature)” value (from here on “AD: ADHD”) is recorded as “+ (LOQ ≤ + <5%)”, the “AG: analgesic (probability of activity signature)” value (“AG: analgesic” below) is on record as “+ (LOQ ≤ + <5%)”, the “AX: anxiolytic (probability of activity signature)” value (“AX: anxiolytic” below) is “+ (LOQ ≤ + <5%)” and the “CE: cognitive enhancer (probability of activity signature)” value (“CE: cognitive enhancer” for short) is “+ (LOQ ≤ + <5%)”. The “DP: anti-depressant (probability of activity signature)” value (from here on “DP: anti-depressant”) is recorded as “++ (5% ≤ ++ <25%)”, the “MS: mood stabilizer (probability of activity signature)” value (shortened to “MS: mood stabilizer”) is given as “+ (LOQ ≤ + <5%)”, the “PS: anti-psychotic (probability of activity signature)” value (“PS: anti-psychotic” below) was “+ (LOQ ≤ + <5%)” and the “SD: sedative hypnotic (probability of activity signature)” value (“SD: sedative hypnotic” for short) is given as “++ (5% ≤ ++ <25%)”. Besides, the “UN: uncharacterized CNS activity (probability of activity signature)” value (“UN: uncharacterized CNS activity” for short) is on record as “+ (LOQ ≤ + <5%)”.

Take `C#CCN[C@H]1COCc2ccccc21.Cl` [Example 266]: the “AD: ADHD” value is “+ (LOQ ≤ + <5%)”, the “AG: analgesic” value is “+ (LOQ ≤ + <5%)”, the “AX: anxiolytic” value is recorded as “+ (LOQ ≤ + <5%)” and the “CE: cognitive enhancer” value is listed as “+ (LOQ ≤ + <5%)”. The “DP: anti-depressant” value was “+ (LOQ ≤ + <5%)”, the “MS: mood stabilizer” value is recorded as “++ (5% ≤ ++ <25%)”, the “PS: anti-psychotic” value is listed as “+ (LOQ ≤ + <5%)” and the “SD: sedative hypnotic” value is on record as “++ (5% ≤ ++ <25%)”. For the same compound, the “UN: uncharacterized CNS activity” value was “+ (LOQ ≤ + <5%)”.

For the compound `C#CCN[C@@H]1c2ccccc2CO[C@H]1C.Cl` [Example 267], the “AD: ADHD” value is “+ (LOQ ≤ + <5%)”, the “AG: analgesic” value was “+ (LOQ ≤ + <5%)”, the “AX: anxiolytic” value is on record as “+ (LOQ ≤ + <5%)” and the “CE: cognitive enhancer” value is recorded as “+ (LOQ ≤ + <5%)”. Besides, the “DP: anti-depressant” value is “++ (5% ≤ ++ <25%)”, the “MS: mood stabilizer” value is reported as “++ (5% ≤ ++ <25%)”, the “PS: anti-psychotic” value is “+ (LOQ ≤ + <5%)” and the “SD: sedative hypnotic” value is listed as “++ (5% ≤ ++ <25%)”. The “UN: uncharacterized CNS activity” value is on record as “++ (5% ≤ ++ <25%)”.

Regarding `CCCN[C@H]1c2ccccc2CO[C@@H]1C.Cl` [Example 268], the “AD: ADHD” value was “++ (5% ≤ ++ <25%)”, the “AG: analgesic” value is reported as “+ (LOQ ≤ + <5%)”, the “AX: anxiolytic” value is recorded as “++ (5% ≤ ++ <25%)” and the “CE: cognitive enhancer” value is listed as “+ (LOQ ≤ + <5%)”. For the same compound, the “DP: anti-depressant” value is “+ (LOQ ≤ + <5%)”, the “MS: mood stabilizer” value is recorded as “++ (5% ≤ ++ <25%)”, the “PS: anti-psychotic” value is “+++ (25% ≤ +++ <50%)” and the “SD: sedative hypnotic” value is “++ (5% ≤ ++ <25%)”. For the same compound, the “UN: uncharacterized CNS activity” value is on record as “++ (5% ≤ ++ <25%)”.

Regarding `CCCN[C@@H]1c2ccccc2CO[C@@H]1C.Cl` [Example 269], the “AD: ADHD” value was “+ (LOQ ≤ + <5%)”, the “AG: analgesic” value was “+ (LOQ ≤ + <5%)”, the “AX: anxiolytic” value is recorded as “+ (LOQ ≤ + <5%)” and the “CE: cognitive enhancer” value is “+ (LOQ ≤ + <5%)”. The “DP: anti-depressant” value is recorded as “++ (5% ≤ ++ <25%)”, the “MS: mood stabilizer” value is “++ (5% ≤ ++ <25%)”, the “PS: anti-psychotic” value is listed as “+ (LOQ ≤ + <5%)” and the “SD: sedative hypnotic” value is on record as “++ (5% ≤ ++ <25%)”. In addition, the “UN: uncharacterized CNS activity” value is given as “++ (5% ≤ ++ <25%)”.

Consider `C#CCN[C@H]1c2ccccc2CO[C@@H]1C.Cl` [Example 270], for which the “AD: ADHD” value is on record as “++ (5% ≤ ++ <25%)”, the “AG: analgesic” value was “+ (LOQ ≤ + <5%)”, the “AX: anxiolytic” value is “++ (5% ≤ ++ <25%)” and the “CE: cognitive enhancer” value was “+ (LOQ ≤ + <5%)”. For the same compound, the “DP: anti-depressant” value is on record as “++ (5% ≤ ++ <25%)”, the “MS: mood stabilizer” value was “++++ (50% ≤ ++++)”, the “PS: anti-psychotic” value is given as “+ (LOQ ≤ + <5%)” and the “SD: sedative hypnotic” value is reported as “++ (5% ≤ ++ <25%)”. The “UN: uncharacterized CNS activity” value is “++ (5% ≤ ++ <25%)”.

Turning to `C#CCN[C@H]1c2ccccc2CO[C@H]1C.Cl` [Example 271], the “AD: ADHD” value was “++ (5% ≤ ++ <25%)”, the “AG: analgesic” value is reported as “+ (LOQ ≤ + <5%)”, the “AX: anxiolytic” value is listed as “++ (5% ≤ ++ <25%)” and the “CE: cognitive enhancer” value is listed as “+ (LOQ ≤ + <5%)”. The “DP: anti-depressant” value is “++ (5% ≤ ++ <25%)”, the “MS: mood stabilizer” value is “+++ (25% ≤ +++ <50%)”, the “PS: anti-psychotic” value is “+ (LOQ ≤ + <5%)” and the “SD: sedative hypnotic” value is “++ (5% ≤ ++ <25%)”. Also, the “UN: uncharacterized CNS activity” value was “++ (5% ≤ ++ <25%)”.

Consider `CCCN[C@H]1c2ccccc2CO[C@H]1C.Cl` [Example 272], for which the “AD: ADHD” value is “+ (LOQ ≤ + <5%)”, the “AG: analgesic” value is on record as “+ (LOQ ≤ + <5%)”, the “AX: anxiolytic” value is “++ (5% ≤ ++ <25%)” and the “CE: cognitive enhancer” value is “+ (LOQ ≤ + <5%)”. Moreover, the “DP: anti-depressant” value is “+ (LOQ ≤ + <5%)”, the “MS: mood stabilizer” value is “++ (5% ≤ ++ <25%)”, the “PS: anti-psychotic” value is reported as “++ (5% ≤ ++ <25%)” and the “SD: sedative hypnotic” value is “++ (5% ≤ ++ <25%)”. Besides, the “UN: uncharacterized CNS activity” value was “++ (5% ≤ ++ <25%)”.

As for `CCN(C)C(=O)Oc1ccc2c(c1)C(N)COC2.Cl` (stereo not drawn) [Example 277, 4-Aminoisochroman-6-yl ethyl(methyl)carbamate hydrochloride], the “AD: ADHD” value was “+ (LOQ ≤ + <5%)”, the “AG: analgesic” value is “+ (LOQ ≤ + <5%)”, the “AX: anxiolytic” value is recorded as “+ (LOQ ≤ + <5%)” and the “CE: cognitive enhancer” value was “+ (LOQ ≤ + <5%)”. In addition, the “DP: anti-depressant” value is on record as “+ (LOQ ≤ + <5%)”, the “MS: mood stabilizer” value is recorded as “+ (LOQ ≤ + <5%)”, the “PS: anti-psychotic” value is listed as “+ (LOQ ≤ + <5%)” and the “SD: sedative hypnotic” value was “+ (LOQ ≤ + <5%)”. The “UN: uncharacterized CNS activity” value is listed as “+ (LOQ ≤ + <5%)”.

As to `CCN(C)C(=O)Oc1ccc2c(c1)CO[C@@H](C)[C@H]2N.Cl` [Example 279], the “AD: ADHD” value is given as “+ (LOQ ≤ + <5%)”, the “AG: analgesic” value was “+ (LOQ ≤ + <5%)”, the “AX: anxiolytic” value is on record as “+ (LOQ ≤ + <5%)” and the “CE: cognitive enhancer” value is reported as “+ (LOQ ≤ + <5%)”. For the same compound, the “DP: anti-depressant” value is on record as “++ (5% ≤ ++ <25%)”, the “MS: mood stabilizer” value is “+++ (25% ≤ +++ <50%)”, the “PS: anti-psychotic” value is listed as “++ (5% ≤ ++ <25%)” and the “SD: sedative hypnotic” value is “++ (5% ≤ ++ <25%)”. In addition, the “UN: uncharacterized CNS activity” value is recorded as “++ (5% ≤ ++ <25%)”.

On to `CCN(C)C(=O)Oc1ccc2c(c1)CO[C@H](C)[C@H]2N.Cl` [Example 280], for which the “AD: ADHD” value was “+ (LOQ ≤ + <5%)”, the “AG: analgesic” value is given as “+ (LOQ ≤ + <5%)”, the “AX: anxiolytic” value is listed as “+ (LOQ ≤ + <5%)” and the “CE: cognitive enhancer” value is “++ (5% ≤ ++ <25%)”. In addition, the “DP: anti-depressant” value is reported as “++ (5% ≤ ++ <25%)”, the “MS: mood stabilizer” value was “++ (5% ≤ ++ <25%)”, the “PS: anti-psychotic” value was “+ (LOQ ≤ + <5%)” and the “SD: sedative hypnotic” value is given as “++ (5% ≤ ++ <25%)”. Besides, the “UN: uncharacterized CNS activity” value is reported as “+ (LOQ ≤ + <5%)”.

As for `CCN(C)C(=O)Oc1ccc2c(c1)[C@H](N)[C@H](C)OC2.Cl` [Example 281], the “AD: ADHD” value is “+ (LOQ ≤ + <5%)”, the “AG: analgesic” value was “+ (LOQ ≤ + <5%)”, the “AX: anxiolytic” value is on record as “+ (LOQ ≤ + <5%)” and the “CE: cognitive enhancer” value is “+ (LOQ ≤ + <5%)”. Besides, the “DP: anti-depressant” value is recorded as “+ (LOQ ≤ + <5%)”, the “MS: mood stabilizer” value is given as “+ (LOQ ≤ + <5%)”, the “PS: anti-psychotic” value was “+ (LOQ ≤ + <5%)” and the “SD: sedative hypnotic” value was “+ (LOQ ≤ + <5%)”. Moreover, the “UN: uncharacterized CNS activity” value is given as “+ (LOQ ≤ + <5%)”.
